Results taken from US20240317752A1, “6-SUBSTITUTED-9H-PURINE DERIVATIVES AND RELATED USES” (Black Diamond Therapeutics, Inc., priority 2021, published 2024).

Target: T1, BaF3 BRAF-KIAA1549 fusion cells (Homo sapiens, UniProt P15056)
T1 construct: The BRAF-KIAA1549 fusion mutant was subcloned into pMXs-IRES-Blasticidin (RTV-016, Cell Biolabs, San Diego, CA); fused on or other part: Q9HCM3 (UPF0606 protein KIAA1549)
Assay: BaF3 BRAF-KIAA1549 fusion cell proliferation assay (CellTiterGlo)
Type: cell-based
Details: 96 hours incubation, potency code
Summary of the method: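 BaF3 cells stably transduced with a BRAF-KIAA1549 fusion, blasticidin-selected and growing without IL-3, were treated with compound for 96 h in RPMI/10% heat-inactivated FBS. Viability read as ATP content by CellTiterGlo luminescence, normalised to DMSO-treated cells. IC50 by Levenberg-Marquardt fit.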

T1 sequence (P15056 whole entry, change not shown, the tested form may be a part): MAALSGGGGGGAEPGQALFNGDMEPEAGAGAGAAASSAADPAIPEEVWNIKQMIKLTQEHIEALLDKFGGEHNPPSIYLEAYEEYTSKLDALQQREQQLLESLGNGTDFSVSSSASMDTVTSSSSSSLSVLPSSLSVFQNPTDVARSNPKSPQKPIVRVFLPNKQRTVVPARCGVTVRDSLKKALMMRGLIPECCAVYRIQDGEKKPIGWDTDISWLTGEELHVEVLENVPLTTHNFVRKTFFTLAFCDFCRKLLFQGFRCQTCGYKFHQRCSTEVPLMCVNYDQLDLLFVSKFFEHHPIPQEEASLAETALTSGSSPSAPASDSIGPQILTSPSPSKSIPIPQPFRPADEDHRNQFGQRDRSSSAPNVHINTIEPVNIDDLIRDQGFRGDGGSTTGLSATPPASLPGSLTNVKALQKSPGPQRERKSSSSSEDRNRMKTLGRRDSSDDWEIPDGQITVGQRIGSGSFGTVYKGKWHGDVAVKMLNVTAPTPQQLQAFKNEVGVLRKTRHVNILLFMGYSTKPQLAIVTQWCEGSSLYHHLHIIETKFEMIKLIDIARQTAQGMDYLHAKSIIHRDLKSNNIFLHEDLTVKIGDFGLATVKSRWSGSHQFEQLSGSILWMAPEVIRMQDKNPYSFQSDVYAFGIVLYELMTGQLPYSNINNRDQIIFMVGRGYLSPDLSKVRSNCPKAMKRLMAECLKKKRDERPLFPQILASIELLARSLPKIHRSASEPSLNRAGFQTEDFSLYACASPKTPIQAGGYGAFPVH

Row | Compound | GI50
1 | Cc1ccc(NC(=O)c2ccc3c(c2)OCO3)cc1Nc1ncccc1-c1ncnc2[nH]cnc12 [Compound I-74, N-(3-((3-(9H-purin-6-yl)pyridin-2-yl)amino)-4-methylphenyl)benzo[d][1,3]dioxole-5-carboxamide] | 20 to 100 nM
2 | Cc1ccc(NC(=O)CC2CCCCCO2)cc1Nc1ncccc1-c1ncnc2[nH]cnc12 (centres unmarked) [Compound I-82, N-(3-((3-(9H-purin-6-yl)pyridin-2-yl)amino)-4-methylphenyl)-2-(oxepan-2-yl)acetamide] | < 20 nM
3 | Cc1ccc(C(=O)Nc2ccnc(C(F)(F)F)c2)cc1Nc1ncccc1-c1ncnc2[nH]cnc12 [Compound I-35, 3-((3-(9H-purin-6-yl)pyridin-2-yl)amino)-4-methyl-N-(2-(trifluoromethyl)pyridin-4-yl)benzamide] | 20 to 100 nM
4 | Cc1c(F)cc(NC(=O)c2ccnc(C3(F)CC3)c2)cc1Nc1ncccc1-c1ncnc2[nH]cnc12 [Compound I-72, N-(3-((3-(9H-purin-6-yl)pyridin-2-yl)amino)-5-fluoro-4-methylphenyl)-2-(1-fluorocyclopropyl)isonicotinamide] | < 20 nM

More lines, now with the values ahead:

Row | GI50 | Compound
5 | 20 to 100 nM | Cc1ccc(NC(=O)C[C@H]2CCO[C@H](C(F)(F)F)C2)cc1Nc1ncccc1-c1ncnc2[nH]cnc12 (single isomer, unassigned) [IA-147]
6 | < 20 nM | Cc1nc2c(-c3cccnc3Nc3cc(NC(=O)c4cc(C(O)C(F)(F)F)ccn4)ccc3C)ncnc2[nH]1 (centres unmarked) [IA-130, N-(4-methyl-3-((3-(8-methyl-9H-purin-6-yl)pyridin-2-yl)amino)phenyl)-4-(2,2,2-trifluoro-1-hydroxyethyl)picolinamide]
7 | 100 to 500 nM | Cc1ccc(NC(=O)C[C@H]2CCN[C@@H](C(F)(F)F)C2)cc1Nc1ncccc1-c1ncnc2[nH]cnc12 (single isomer, unassigned) [IA-141]
8 | < 20 nM | Cc1ccc(NC(=O)c2cc(C(F)(F)F)c(OCCN(C)C)cn2)cc1Nc1ncccc1-c1ncnc2[nH]cnc12 [IA-97, N-(3-(3-(9H-purin-6-yl)pyridin-2-ylamino)-4-methylphenyl)-5-(2-(dimethylamino)ethoxy)-4-(trifluoromethyl)picolinamide]
